From patent publication US20250228851A1, “ALLOSTERIC INHIBITOR COMPOUNDS FOR OVERCOMING CANCER RESISTANCE” (priority 2021, published 2025)

How the values were obtained:
Sup-B15 (p185-BCR-ABL) = test: XTT cell viability, Sup-B15 (WT-Sup-B15); format: cell-based, human
Description: (§1) • 1. Ba/F3 cells were obtained from the German Collection of Microorganisms and Cell Cultures (DSMZ, Braunschweig, Germany) and maintained in RPMI 1640 medium supplemented with 10% fetal calf serum (Invitrogen) containing 10 ng/ml of interleukin-3 (Cell Concepts, Umkirch, Germany). Ecotropic Phoenix cells and Rat-1 cells were cultured in Dulbecco's modified Eagle's medium supplemented with 10% fetal calf serum. GNF-2 (Sigma-Adrich, Steinheim, Germany) was dissolved in dimethyl sulfoxide and added at a final concentration of […]. Cell growth was assessed by dye exclusion using Trypan blue. Proliferation was assessed using the XTT proliferation kit (Roche, Mannheim, Germany), according to the manufacturer's instructions. • 2. Ba/F3: IL-3 dependent lymphatic murine pro B cell line. Ba/F3 cells expressing either p185-BCR-ABL1 (p185-BCR-ABL-Ba/F3) or p210-BCR-ABL (p210-BCR-ABL-Ba/F3). p185-BCR-ABL1 (activated kinases substitute for the IL-3 signaling and therefore render the cells IL3 independent. Ba/F3 cells expressing either p185-BCR-ABL (p185-Ba/F3) or p210-BCR-ABL (p210-Ba/F3). Ba/F3 cells obtained from the German Collection of Microorganisms and Cell Cultures (DSMZ, Braunschweig, Germany). • 3. Mutant transduced Ba/F3 cells (T315I-p185-BCR-ABL1 or T315I-p210-BCR-ABL1): Ba/F3 cells expressing either the mutated forms T315I-p185-BCR-ABL1 or T315I-p210-BCR-ABL1. • 4. WT-Sup-B15: A Ph+ ALL cell line harboring the p185-BCR-ABL. Sup-B15: established from the bone marrow of a child with acute lymphoblastic leukemia (B cell precursor ALL) in second relapse in 1984; described in the literature to carry the ALL-variant (m-BCR) of the BCR-ABL1 fusion gene (e1-a2) correct, because it results in the p185-BCR-ABL version. • 5. […] V617FJAK2 HEL: (Human erythroleukemia) is a growth factor independent erythroleukemic cell line established from the bone marrow of a patient with relapsed Hodgkin disease after autologous bone marrow transplantation (Martin P & Papayannopoulou T: Science 1982; 216:1233-1235). HEL cells display a block in differentiation at the level of common erythroid-megakaryocytic progenitor and have been commonly used as a model to study erythroid and megakaryocytic differentiation. • 7. Jurkat: an immortalized human T lymphocyte first derived from the peripheral blood of a child suffering from T cell leukemia. Jurkat cells are used to study acute T cell leukemia, T cell signaling, and the expression of various chemokine receptors susceptible to viral entry, particularly HIV.
FIG. 2: Effect of Compound 16 on leukemia cell lines (Jurkat, Sup-B15 and BV173). Cell viablility (CV) was determined following incubation of the 1 m cells/ml of each cell line with increasing concentration of the Compound 16 [empty vehicle (0.0 μM+IL3), 2.5, 5.0 and 10.0 μM]. CV was measured by the XTT method. The means±SD of triplicates from one representative experiment out of three performed are given.

[1] = system: Ba/F3 cells expressing p185-BCR-ABL; test: XTT cell viability / proliferation, Ba/F3 expressing p185-BCR-ABL; format: cell-based, murine
Description: as §1
FIGS. 1A and 1B: Effects of Compound 16 on Ba/F3 cells expressing either p185-BCR-ABL or T315I-p185-BCR-ABL. Cells were exposed to increasing concentration of Compound 16 [empty vehicle (0.0 μM+IL3), 2.5, 5.0 and 10.0 μM]. […] Cell viability (CV) was assessed using the XTT method as described in the experimental part. The means±SD of triplicates from one representative experiment out of three performed are given.
FIGS. 7A-C: Effects of Compound 16 on of Ba/F3 cells expressing WT-p185-BCR-ABL (FIG. 7A) and the mutant gatekeeper T315I-p185-BCR-ABL (FIG. 7B) by Compound 16. Cells were exposed to increasing concentrations of Compound 16.

WT-Ba/F3 = test: Proliferation by trypan blue exclusion, WT-Ba/F3; format: cell-based, murine; conditions: WT-Ba/F3, 1.0, 2.0 and 5.0 μM
Description: • 1. Ba/F3 cells were obtained from the German Collection of Microorganisms and Cell Cultures (DSMZ, Braunschweig, Germany) and maintained in RPMI 1640 medium supplemented with 10% fetal calf serum (Invitrogen) containing 10 ng/ml of interleukin-3 (Cell Concepts, Umkirch, Germany). Ecotropic Phoenix cells and Rat-1 cells were cultured in Dulbecco's modified Eagle's medium supplemented with 10% fetal calf serum. GNF-2 (Sigma-Adrich, Steinheim, Germany) was dissolved in dimethyl sulfoxide and added at a final concentration of […]. Cell growth was assessed by dye exclusion using Trypan blue. Proliferation was assessed using the XTT proliferation kit (Roche, Mannheim, Germany), according to the manufacturer's instructions. • 2. Ba/F3: IL-3 dependent lymphatic murine pro B cell line. […]
FIGS. 4A and 4B. […] All cell lines were treated with the indicated concentrations of Compound 16 for total period of five days and proliferation was determined by trypan blue exclusion of viable cells. […] For factor-independent growth, the number of viable cells was determined at day 3 by trypan blue dye exclusion.

[2] = system: PH (Ph+ AKI sensitive culture); test: Proliferation by dye exclusion after three days, PH; format: cell-based, human
Description: FIG. 3. […] Cells were exposed to increasing concentration of 2.5, 5 and 10 μM of Compound 16. The negative control cell lines Ph− ALL HP was irresponsive to increasing concentration of Compound 16 (up to 10 μM). […] All four cell lines were plated in duplicates at the indicated concentrations, and proliferation was assessed after three days by dye exclusion of viable cells. […] The sensitivity of Ph+ cells to Compound 16 underlines the involvement of BCR-ABL in the antiproliferative mechanism. Death induction of BV173 cells is well taken as an indication of the ability of such group of compounds to overcome resistance that is originated in non-mutational grounds. However, the ability overcome the resistant T315I-BCR-ABL mutant, as shown in the dose-dependent manner of KÖ (circles), might be indicative for a non-ATP competitive mechanism of action.

COc1ccc(C(=O)N2CCN(c3cc(Nc4ccc(OC(F)(F)F)cc4)ncn3)CC2)cc1OC [Compound 16]
cells inhibited (Sup-B15 (p185-BCR-ABL); 10 μM): around 69% | IC50 (Sup-B15 (p185-BCR-ABL); Sup-B15, XTT, estimated): ~4.5 µM | antiproliferative response (in words) (Sup-B15 (p185-BCR-ABL); Sup-B15 / WT-Sup-B15, increasing concentration up to 10 μM): potently inhibited the proliferation | cells inhibited ([1]; 1 μM, within the first 24 hours): 35% | viable cells ([1]; 2 μM, T=48 hr): 27.59% | cell proliferation affected ([1]; 5 μM): ~90% | time of maximum inhibition post application ([1]; 5 μM, WT-p185- and T315I-p185-BCR-ABL Ba/F3): 60 h | effect on proliferation (in words) (WT-Ba/F3): without affecting the proliferation | IC50 [2]: ~2.1 µM
